Structures are written as SMILES.

The assay in a line: Homogeneous Time Resolved Fluorescence Assay: The sGC cellular activator assay is performed in the presence and absence of 50% human serum (HS) using Chinese hamster ovary cells that have been stably transfected to express the human soluble guanylate cyclase alpha 1 and beta 1 subunits (sGC). Cells are preincubated with 40 microM 1H-[1,2,4]oxadiazolo[4,3-a]quinoxalin-1-one (ODQ), an sGC inhibitor, for one h in buffer containing 0.1% bovine serum albumin and 3-isobutyl-1-methylxanthine (IBMX). Concentration response curves are prepared for test compounds in DMSO. An intermediate dilution of the compounds is performed in either buffer containing IBMX or type AB HS containing IBMX. Diluted compounds are added to cells and they are incubated at room temperature for thirty min. cGMP is measured using a CisBio homogeneous time resolved fluorescence kit and the EC50 is calculated for each compound.
Broadly, the EC50 is the concentration that produces a half-maximal response. With `Cc1cc(COc2c(C)cccc2-c2csc(N3CC[C@@]4(C(=O)O)C[C@H]4C3)n2)cc2c1CN(C1COC1)CC2`, the EC50 is 2 nM.
With `Cc1ccc(OCc2ccc3c(c2C)CCN(C2COC2)CC3)c(-c2cccc(N3CC4C[C@]4(C(=O)O)C3)n2)c1` (stereo partly drawn) the figure was 50 nM; with `Cc1cccc(-c2csc(N3CC[C@@]4(C(=O)O)C[C@H]4C3)n2)c1OCc1ccc2c(c1C)CCN(C1CCOCC1)CC2`, 2 nM; with `CO[C@@H]1CN(c2nc(-c3cc(F)cc(C)c3OCc3ccc4c(c3)[C@H](C)CN(C3CCOCC3)CC4)cs2)CC[C@@H]1C(=O)O`, 11 nM.
On to `O=C(O)[C@@]12CCN(c3nccc(-c4ccccc4OCc4ccc5c(c4)CCN(C4CCOCC4)C5)n3)C[C@@H]1C2`, for which the EC50 was 32 nM.
`Cc1cccc(-c2csc(N3CC[C@@]4(C(=O)O)C[C@H]4C3)n2)c1OCc1ccc2c(c1C)CCN(C1CCOCC1)C2`: the EC50 was 11 nM.
With `Cc1cccc(-c2csc(N3CC[C@@]4(C(=O)O)C[C@H]4C3)n2)c1OCc1ccc2c(c1C)CCN(C1COC1)C2` the figure was 17 nM; with `Cc1cccc(-c2csc(N3CC[C@@]4(C(=O)O)C[C@H]4C3)n2)c1OCc1cnc2c(c1)CCN(C1CCOCC1)C2`, 209 nM; with `CO[C@@H]1CN(c2nc(-c3cc(F)cc(C)c3OCc3ccc4c(c3)[C@@H](C)CN(C3CCOCC3)CC4)cs2)CC[C@@H]1C(=O)O`, 5 nM.
On to `Cc1cccc(-c2csc(N3CC[C@@]4(C(=O)O)C[C@H]4C3)n2)c1OCc1ccc2c(c1)CCN(C1CCOCC1)CC2`, for which the EC50 was 10 nM.
Turning to `Cc1cccc(-c2csc(N3CC[C@@]4(C(=O)O)C[C@H]4C3)n2)c1OCc1ccc2c(c1C)CCN(C1COC1)CC2`, the EC50 is 6 nM.
In the case of `Cc1cccc(-c2csc(N3CC[C@@]4(C(=O)O)C[C@H]4C3)n2)c1OCc1ccc2c(c1)CCN(C1CCOC1)CC2` (stereo partly drawn), the EC50 was 11 nM.
Regarding `Cc1cccc(-c2csc(N3CC[C@@]4(C(=O)O)C[C@H]4C3)n2)c1OCc1cnc2c(c1)CCN(C1CCOC1)C2` (stereo partly drawn), the EC50 was 453 nM.
On to `CO[C@@H]1CN(c2cccc(-c3cccc(C)c3OCc3ccc4c(c3C)CCN(C3CCOCC3)CC4)n2)CC[C@@H]1C(=O)O`, for which the EC50 is 6 nM.
On to `Cc1ccc(OCc2ccc3c(c2)CCN(C2COC2)C3)c(-c2csc(N3CC[C@@]4(C(=O)O)C[C@H]4C3)n2)c1`, for which the EC50 was 73 nM.
In the case of `Cc1ccc(OCc2ccc3c(c2C)CCN(C2CCOCC2)C3)c(-c2ccnc(N3CC[C@@]4(C(=O)O)C[C@H]4C3)n2)c1` it was 12 nM; in that of `Cc1cc(COc2c(C)cccc2-c2csc(N3CC[C@@]4(C(=O)O)C[C@H]4C3)n2)cc2c1CN(CC1COCCO1)CC2` (stereo partly drawn), 11 nM.
On to `CO[C@H]1CN(c2nc(-c3cc(C)ccc3OCc3ccc4c(c3C)CCN(C[C@@H]3CCOC3)C4)cs2)CC[C@H]1C(=O)O`, for which the EC50 was 17 nM.

The record behind these values is ChEMBL document CHEMBL3886753, “Heterocyclic carboxylic acids as activators of soluble guanylate cyclase” (2016).
